# Read-outs that look alike come from different tables or passages of the source.
# Key:
# [1] = system: Huh-7.5 cells; experiment: Cell viability assay ([…]-GLO); assay type: cell-based, human; details: for Cell viability (% viable): 10 μM compound, triplicate, average ± SD
# Procedure: To assess compound toxicity toward Huh-7.5 cells, cells were plated and treated as above and cell viability was assessed using the […]-GLO luminescent cell viability kit (PROMEGA) following the manufacturer's instructions. Briefly, at the end of a 72 hour incubation period, the medium was aspirated and the cells were washed with 1×PBS, then an equal volume of growth medium and […]-GLO reagent was added and the lysis was initiated by mixing on an orbital shaker. The plate was incubated at 23° C. for 30 minutes and the luciferase activity was measured for 1 second using the FLUOSTAR Omega microplate reader (BMG Labtech).
# [2] = system: HCV RLuc subgenomic replicon (genotype 1b) in Huh-7.5 cells; experiment: HCV subgenomic replicon assay (Renilla luciferase); assay type: cell-based, hepatitis C virus
# Excerpt: An HCV Renilla luciferase reporter construct (HCV RLuc; Huang, et al. (2006) Hepatology 43:81-90) was used to measure the effect of each compound on cellular HCV RNA levels. In HCV RLuc, the HCV internal ribosome entry site (IRES) drives the translation of the neomycin and Renilla luciferase genes while the HCV nonstructural proteins (NS3 to NS5B) are translated from the Encephalomyocarditis virus IRES (Huang, et al. (2006) supra). The plasmid DNA was cleaved with ScaI, purified by phenol/chloroform extraction followed by ethanol precipitation, and used as template for RNA transcription using […] T7 RNA transcription kit (Ambion, Austin, Tex.). The RNA transcripts were treated with 2 U DNase I (Ambion) at 37° C. for 30 minutes, purified by acid phenol/chloroform extraction, followed by isopropanol precipitation, and suspended in diethylpyrocarbonate-treated water. RNA concentration was determined by spectrophotometry by measuring the A260. RNA integrity and size was checked on 1% agarose gel. Transcribed RNA was stored in aliquots at −80° C. until needed.
# Huh-7.5 cells were transfected with HCV RNA by electroporation. Briefly, subconfluent Huh7.5 cells were trypsinized, suspended in complete growth medium, and centrifuged at 1,000×g for 5 minutes at 4° C. The cell pellets were then washed twice with ice-cold phosphate-buffered saline (PBS) and suspended at 1.75×10^7 cells/mL in ice-cold PBS. Replicon RNA (5 μg) was mixed with 0.4 mL of cell suspension and transferred to 2 mm gap width electroporation cuvette (EPPENDORF AG, Germany) and pulsed 5 times for 99 μsec at 820 V over 1.1 sec intervals using the ECM 830 electroporator instrument (BTX Harvard Apparatus, Holliston, Mass.). After a 5 minute recovery period at room temperature, cells were transferred to 10 ml complete growth medium, and seeded into 10 cm diameter cell culture dishes. Twenty-four hours after transfection, the medium was replaced with fresh complete DMEM supplemented with 1 mg/ml geneticin (Invitrogen) and the medium was replaced every three to four days with fresh medium containing 1 mg/mL geneticin. Geneticin-resistant colonies were selected for a period of two weeks and expanded in the presence of 250 μg/mL geneticin.
# HCV RLuc replicon cells were seeded at a density of 10×10^3 cells per well in 96-well plates and incubated for 4-5 hours to allow the cells to attach to the plate. The compounds dissolved in dimethyl sulfoxide (DMSO) were added at a final concentration of 10 μM (DMSO solvent final concentration was 0.5%) and the cells were incubated for 72 hours at 37° C. under 5% CO2 atmosphere. The effects of compounds on HCV replication were then assessed by measuring the Renilla luciferase activity in compound-treated versus DMSO-treated cells. At the end of the incubation period, the medium was aspirated and the cells were washed with 1×PBS. The Renilla luciferase reporter gene assay was performed using the Renilla luciferase assay kit (PROMEGA, Madison, Wis.) according to the manufacturer's instructions. Briefly, the cells were lysed by addition of 50 μL of 1× Renilla luciferase lysis buffer followed by two cycles of freeze/thaw. The luciferase activity content of the lysate was measured with a FLUOSTAR Omega microplate reader instrument (BMG Labtech, Germany) after injecting 50 μL of luciferase substrate and reading for 5 seconds.
# To determine if the above identified compounds might be useful as HCV antiviral agents, they were added to cells harboring HCV subgenomic RNA replicon. The HCV replicon chosen was derived from the same HCV strain (genotype 1b) as the NS3 protein used for screening and enzyme assays. […] 75:4614-4624; Blight, et al. (2002) J. Virol. 76:13001-13014). […]
# [3] = Hepatitis C virus, Huh7.5, 10 μM compound, triplicate, average ± SD, read-out: HCV replication (% Inh.)
# [4] = Hepatitis C virus, Huh7.5, 10 μM, read-out: Replicon (% Inhibition @ 10 μM)
Compound,Cell Viability (% @ 10 μM) [1],Cell viability (% viable) [1],"inhibition at 10 µM [2, 3]","inhibition at 10 µM [2, 4]",toxicity at highest concentration tested ([1]; 50 μM),"EC50 ([2]; Hepatitis C virus, Huh7.5, HCV Rluc subgenomic replicon cells, read-out: concentration needed to reduce replicon-encoded luciferase by 50%)",combination of compound 24 and telaprevir on replicon expression ([2]; Rluc subgenomic HCV replicon cells),loss of HCV replicon Rluc activity ([2]; elevated concentrations (>10 μM))
"Cc1ccc2nc(-c3ccc4nc(-c5ccc(NC(=O)c6cccc(Cl)c6)cc5)sc4c3)sc2c1S(=O)(=O)O [Compound 17, 2′-(4-(3-chlorobenzamido)phenyl)-6-methyl-[2,6′-bibenzo[d]thiazole]-7-sulfonic acid]",112 ± 4%,112 ± 4%,54 ± 10%,54 ± 10%,–,–,–,–
"Cc1ccc2nc(-c3ccc4nc(-c5ccc(NC(=O)c6ccc(Cl)c(Cl)c6)cc5)sc4c3)sc2c1S(=O)(=O)O [Compound 18, 2′-(4-(3,4-dichlorobenzamido)phenyl)-6-methyl-[2,6′-bibenzo[d]thiazole]-7-sulfonic acid]",114 ± 7%,114 ± 7%,43 ± 15%,43 ± 15%,–,–,–,–
"Cc1ccc2nc(-c3ccc4nc(-c5ccc(NC(=O)c6ccccc6C(F)(F)F)cc5)sc4c3)sc2c1S(=O)(=O)O [Compound 19, 6-methyl-2′-(4-(2-(trifluoromethyl)benzamido)phenyl)-[2,6′-bibenzo[d]thiazole]-7-sulfonic acid]",112 ± 1%,112 ± 1%,0%,0.3 ± 9%,–,–,–,–
"Cc1ccc2nc(-c3ccc4nc(-c5ccc(NC(=O)c6cccc(C(F)(F)F)c6)cc5)sc4c3)sc2c1S(=O)(=O)O [Compound 20, 6-methyl-2′-(4-(3-(trifluoromethyl)benzamido)phenyl)-[2,6′-bibenzo[d]thiazole]-7-sulfonic acid]",121 ± 3%,121 ± 3%,41 ± 8%,41 ± 8%,–,–,–,–
"Cc1ccc2nc(-c3ccc4nc(-c5ccc(NC(=O)c6c(F)cccc6C(F)(F)F)cc5)sc4c3)sc2c1S(=O)(=O)O [Compound 21, 2′-(4-(2-fluoro-6-(trifluoromethyl)benzamido)phenyl)-6-methyl-[2,6′-bibenzo[d]thiazole]-7-sulfonic acid]",122 ± 2%,122 ± 2%,55 ± 7%,55 ± 7%,–,–,–,–
"Cc1ccc2nc(-c3ccc4nc(-c5ccc(NC(=O)c6cccc(C(F)(F)F)c6F)cc5)sc4c3)sc2c1S(=O)(=O)O [Compound 22, 2′-(4-(2-fluoro-3-(trifluoromethyl)benzamido)phenyl)-6-methyl-[2,6′-bibenzo[d]thiazole]-7-sulfonic acid]",122 ± 1%,122 ± 1%,48 ± 18%,48 ± 18%,–,–,–,–
"Cc1ccc2nc(-c3ccc4nc(-c5ccc(NC(=O)c6ccc(C(F)(F)F)c(F)c6)cc5)sc4c3)sc2c1S(=O)(=O)O [Compound 23, 2′-(4-(3-fluoro-4-(trifluoromethyl)benzamido)phenyl)-6-methyl-[2,6′-bibenzo[d]thiazole]-7-sulfonic acid]",129 ± 2%,129 ± 2%,48 ± 4%,48 ± 4%,–,–,–,–
"Cc1ccc2nc(-c3ccc4nc(-c5ccc(NC(=O)c6cc(C(F)(F)F)cc(C(F)(F)F)c6)cc5)sc4c3)sc2c1S(=O)(=O)O [Compound 24, 2′-(4-(3,5-bis(trifluoromethyl)benzamido)phenyl)-6-methyl-[2,6′-bibenzo[d]thiazole]-7-sulfonic acid]",122 ± 5%,122 ± 5%,60 ± 4%,60 ± 4%,not toxic,5 ± 2 µM,No synergy,more than 90%
"Cc1ccc2nc(-c3ccc4nc(-c5ccc(NC(=O)c6cc(C(F)(F)F)ccc6F)cc5)sc4c3)sc2c1S(=O)(=O)O [Compound 25, 2′-(4-(2-fluoro-5-(trifluoromethyl)benzamido)phenyl)-6-methyl-[2,6′-bibenzo[d]thiazole]-7-sulfonic acid]",132 ± 14%,132 ± 14%,39 ± 4%,39 ± 4%,–,–,–,–
"Cc1ccc2nc(-c3ccc4nc(-c5ccc(NC(=O)c6cc(F)ccc6C(F)(F)F)cc5)sc4c3)sc2c1S(=O)(=O)O [Compound 26, 2′-(4-(5-fluoro-2-(trifluoromethyl)benzamido)phenyl)-6-methyl-[2,6′-bibenzo[d]thiazole]-7-sulfonic acid]",118 ± 4%,118 ± 4%,61 ± 14%,61 ± 14%,–,–,–,–
"Cc1ccc2nc(-c3ccc4nc(-c5ccc(NC(=O)c6cc(F)cc(C(F)(F)F)c6)cc5)sc4c3)sc2c1S(=O)(=O)O [Compound 27, 2′-(4-(3-fluoro-5-(trifluoromethyl)benzamido)phenyl)-6-methyl-[2,6′-bibenzo[d]thiazole]-7-sulfonic acid]",113 ± 1%,113 ± 1%,51 ± 9%,51 ± 9%,–,–,–,–
"Cc1ccc(NC(=O)Nc2ccc(-c3nc4ccc(-c5nc6ccc(C)c(S(=O)(=O)O)c6s5)cc4s3)cc2)cc1 [Compound 28, 6-methyl-2′-(4-(3-(p-tolyl)ureido)phenyl)-[2,6′-bibenzo[d]thiazole]-7-sulfonic acid]",93 ± 1%,93 ± 1%,43 ± 9%,43 ± 9%,–,–,–,–
"COc1ccc(S(=O)(=O)Nc2ccc(-c3nc4ccc(-c5nc6ccc(C)c(S(=O)(=O)O)c6s5)cc4s3)cc2)cc1 [Compound 29, 2′-(4-(4-methoxyphenylsulfonamido)phenyl)-6-methyl-[2,6′-bibenzo[d]thiazole]-7-sulfonic acid]",75 ± 3%,75 ± 3%,44 ± 5%,44 ± 5%,–,–,–,–
"CC(=O)Nc1ccc(-c2nc3ccc(-c4nc5ccc(C)c(S(=O)(=O)O)c5s4)cc3s2)cc1 [Compound 30, 2′-(4-acetamidophenyl)-6-methyl-[2,6′-bibenzo[d]thiazole]-7-sulfonic acid]",102 ± 9%,100 ± 6%,1 ± 12%,26 ± 21%,–,–,–,–
"Cc1ccc2nc(-c3ccc4nc(-c5ccc(NC(=O)c6cccnc6)cc5)sc4c3)sc2c1S(=O)(=O)O [Compound 31, 6-methyl-2′-(4-(nicotinamido)phenyl)-[2,6′-bibenzo[d]thiazole]-7-sulfonic acid]",113 ± 6%,113 ± 6%,51 ± 22%,51 ± 22%,–,–,–,–
"Cc1ccc2nc(-c3ccc4nc(-c5ccc(NC(=O)c6ccncc6)cc5)sc4c3)sc2c1S(=O)(=O)O [Compound 32, 2′-(4-(isonicotinamido)phenyl)-6-methyl-[2,6′-bibenzo[d]thiazole]-7-sulfonic acid]",117 ± 5%,117 ± 5%,59 ± 13%,59 ± 13%,–,–,–,–
